From patent US8933267B2, “Compounds for use as anti-ulcer agent and/or anti-Helicobacter pylori agent and pharmaceutical compositions thereof” (King Saud University, priority 2013, dated 2015)
Converted amounts (≈) assume the structure as drawn. Marks after values point to notes of the source that are not given here.

Tests used:
[1] = system: H. pylori clinical isolates KA1-KA7 and ATCC 43504; assay: Anti-Helicobacter pylori activity, disk diffusion method; assay type: cell-based; details: for susceptibility by disc diffusion (in words): all the isolates of H. pylori
Method: Clinical isolates were symbolized from KA1 to KA7. Isolates were grown in Brucella agar plates (Difco, Detroit, Mich., USA) containing 10% v/v sheep serum at 37° C. Identification was carried out using Gram stain and catalase, oxidase and urea hydrolysis activities. Helicobacter pylori ATCC 43504 was used as control. Determination of the amino acid-sulfanilamide hybrid activity against H. pylori was carried out using disk diffusion method (McNulty C, Owen R., Tompkins […]., Price A., Smith G. and […]. (2002). Helicobacter pylori susceptibility testing by disc diffusion. Journal of Antimicrobial Chemotherapy, 49: 601-609). The amino acid-sulfanilamide hybrid compound was dissolved in 2% Tween (v/v), in order to obtain final concentration of 2 mg/ml.

[2] = system: H. pylori clinical isolates KA1-KA7 and ATCC 43504; assay: Minimum inhibitory concentration (MIC), broth microdilution assay; assay type: cell-based; details: Helicobacter pylori
Method: A total of seven clinical isolates of H. pylori were isolated from 19 biopsies received from patients diagnosed with gastritis or peptic ulcer disease at Al-Kasr Al-Ainy hospital, Cairo, Egypt. Clinical isolates were symbolized from KA1 to KA7. Isolates were grown in Brucella agar plates (Difco, Detroit, Mich., USA) containing 10% v/v sheep serum at 37° C.
Identification was carried out using Gram stain and catalase, oxidase and urea hydrolysis activities. Helicobacter pylori ATCC 43504 was used as control.
The Minimum inhibitory concentration (MIC) was carried out by the broth microdilution assay (EUCAST, 2003). A total of 100 μL of BHI broth supplemented with 10% defibrinated sheep blood inoculated with 6×10^8 H. pylori (McFarland turbidity standard 2) and 100 μL A of serial dilutions of amino acid-sulfanilamide hybrid compound dissolved in 2% Tween (v/v) was added to each well in the microplate, to reach final concentrations of 12.5; 25; 50; 100; 200; 400 and 800 μg/ml. The microplate was incubated at 37° C. under microaerophilic conditions in an atmosphere of 5-15% O2 and 5-10% CO2, for 48-72 h. After incubation, the plates were visually examined, the optical density was determined at 450 nm and each well was replicated in blood agar (Mueller-Hinton agar with 5% sheep blood), to determine the MIC.

[3] = system: absolute alcohol-induced ulcer in rats; assay: Antiulcerogenic activity, absolute ethanol-induced ulcer model; assay type: in vivo, male Wistar rats
Method: Evaluation of the anti-ulcerogenic activity was carried out using absolute ethanol-induced ulcer model (Bighettia A. E., Antonio M. A., Kohna L. K., Rehdera V. L. G., Foglioa M. A., Possentia A., Vilelaa L., Carvalho J. E. (2005). Antiulcerogenic activity of a crude hydroalcoholic extract and coumarin isolated from Mikania laevigata Schultz Bip. Phytomedicine, 12, 72-77). Thirty male Wistar rats were divided into 5 groups each of 6 rats. Group 1 received the vehicle and served as control, group 2 received ranitidine (100 mg/kg) and served as standard, groups 3, 4 and 5 received the synthesized compound at doses 25, 50 and 100 mg/kg respectively.
Rats of all groups were fasted for 24 h then all medications were administered orally. One hour after treatment, the animals received an oral dose of absolute ethanol (1 ml/200 g) and then sacrificed one hour later, by ether inhalation, the stomachs were rapidly removed, opened along their greater curvature and gently rinsed under running tap water.
Number of lesions in the glandular part of the stomach were measured under an illuminated magnifying microscope (10×). Long lesions were counted and their lengths were measured. Petechial lesions were counted, and then each five petechial lesions were taken as 1 mm of ulcer.
The lesion scores: The mucosal lesions were quantified by the scoring system (0-5) 0=no damage, 1=Local edema and inflammation without ulcers; 2=One ulcer without inflammation; 3=one to two ulcers with inflammation & lesion diameter <1 cm; 4=More than two ulcers with lesion diameter 1-2 cm; 5=Sever ulceration with lesion diameter >2 cm (Morris et al., 1989).
Ulcer index: To calculate the ulcer index (mm), the sum of the total length of long ulcers and petechial lesions in each group of rats was divided by its number. The curative ratio was determined according to the formula: % Protection of control ulcer=Control UI−Test UI/Control UI×100

[4] = system: liver and kidney functions of rats; assay: Effect on liver and kidney functions; assay type: in vivo, Male Wister rats; details: 100 mg/kg orally for 15 days
Method: Male Wister rats were divided into 2 equal groups each of 10 rats. The 1st group was left as a control and administrated the vehicle orally, while the 2nd group was orally administrated the synthesized compound in a dose of 100 mg/kg for 15 days. After the examination period, 6 hr after the last dose blood samples were collected from the orbital plexus of rats. Samples were left to clot at room temperature for 30 min then centrifuged at 1000 rpm for 20 min. The collected sera were used for determination of the activity of both (AST) aspirate aminotransferase and (ALT) alanine aminotransferase as liver markers. In addition, levels of blood urea, serum creatinine were also estimated as kidney markers ([…]., Al-Jaber N. A., Moses […]. and Zain M. E. (2013). Antiulcerogenic Activities of the Extracts and Isolated Flavonoids of Euphorbia cuneata Vahl. Phytother. Res. 27: 126-130).

[5] = rat serum, 6 hr after last dose, mean ± SD, n=10

Compound: CC1(C)S[C@@H]2[C@H](NC(=O)[C@H](N)c3ccc(O)cc3)C(=O)N2[C@H]1C(=O)O [Amoxicillin, amoxicillin]
- Inhibition zone ([1]; H. pylori ATCC 43504, disk (30 μg)): 33 mm
- Inhibition zone ([1]; H. pylori KA1, disk (30 μg)): 22 mm
- Inhibition zone ([1]; H. pylori KA2, disk (30 μg)): 23 mm
- Inhibition zone ([1]; H. pylori KA3, disk (30 μg)): 24 mm
- Inhibition zone ([1]; H. pylori KA4, disk (30 μg)): 23 mm
- Inhibition zone ([1]; H. pylori KA5, disk (30 μg)): 25 mm
- Inhibition zone ([1]; H. pylori KA6, disk (30 μg)): 26 mm
- Inhibition zone ([1]; H. pylori KA7, disk (30 μg)): 27 mm
- susceptibility by disc diffusion (in words) [1]: sensitive

Compound: CC(C)CC(NCC(=O)Nc1ccc(S(N)(=O)=O)cc1)C(=O)O (stereo not shown) [Compound 5, 4-Methyl-2-[2-oxo-2-(4-sulfamoylphenylamino)ethylamino]pentanoic acid]
- Inhibition zone ([1]; H. pylori ATCC 43504, disk (2 mg)): 16 mm
- Inhibition zone ([1]; H. pylori KA1, disk (2 mg)): 18 mm
- Inhibition zone ([1]; H. pylori KA2, disk (2 mg)): 15 mm
- Inhibition zone ([1]; H. pylori KA3, disk (2 mg)): 16 mm
- Inhibition zone ([1]; H. pylori KA4, disk (2 mg)): 15 mm
- Inhibition zone ([1]; H. pylori KA5, disk (2 mg)): 15 mm
- Inhibition zone ([1]; H. pylori KA6, disk (2 mg)): 17 mm
- Inhibition zone ([1]; H. pylori KA7, disk (2 mg)): 19 mm
- susceptibility by disc diffusion (in words) [1]: sensitive
- MIC ([2]; ATCC43504, H. pylori ATCC 43504): 50 µg/mL (≈ 146 µM)
- MIC ([2]; ATCC43504, H. pylori KA1): 50 µg/mL (≈ 146 µM)
- MIC ([2]; ATCC43504, H. pylori KA2): 50 µg/mL (≈ 146 µM)
- MIC ([2]; ATCC43504, H. pylori KA3): 50 µg/mL (≈ 146 µM)
- MIC ([2]; ATCC43504, H. pylori KA4): 50 µg/mL (≈ 146 µM)
- MIC ([2]; ATCC43504, H. pylori KA5): 50 µg/mL (≈ 146 µM)
- MIC ([2]; ATCC43504, H. pylori KA6): 25 µg/mL (≈ 72.8 µM)
- MIC ([2]; ATCC43504, H. pylori KA7): 12.5 µg/mL (≈ 36.4 µM)
- % protection (of control ulcer) ([3]; oral 25 mg/kg): 16.7%
- score (lesion score 0-5) ([3]; oral 25 mg/kg): 2.2
- no of ulcers ([3]; oral 25 mg/kg, mean, n=6): 11.1*
- % protection (of control ulcer) ([3]; oral 50 mg/kg): 59%
- score (lesion score 0-5) ([3]; oral 50 mg/kg): 1.6
- no of ulcers ([3]; oral 50 mg/kg, mean, n=6): 8**
- % protection (of control ulcer) ([3]; oral 100 mg/kg): 66.7%
- score (lesion score 0-5) ([3]; oral 100 mg/kg): 1.4
- no of ulcers ([3]; oral 100 mg/kg, mean, n=6): 6.2***
- anti-ulcerogenic activity (in words) ([3]; oral 25-100 mg/kg): potent dose dependent anti-ulcerogenic activity
- ALT [4, 5]: 38.67 ± 0.22 U/l
- AST [4, 5]: 63.23 ± 0.39 U/l
- Creatinine [4, 5]: 0.85 ± 0.02 mg/dL
- hepatotoxic manifestation ([4]; rats): didn't reveal hepatotoxic manifestation
- nephrotoxic manifestations ([4]; rats): no apparent nephrotoxic manifestations
- Blood Urea ([4]; rats, 6 hr after last dose, mean ± SD, n=10): 65.50 ± 1.9 mg/dL

Compound: CC[C@H]1OC(=O)[C@H](C)[C@@H](O[C@H]2C[C@@](C)(OC)[C@@H](O)[C@H](C)O2)[C@H](C)[C@@H](O[C@@H]2O[C@H](C)C[C@H](N(C)C)[C@H]2O)[C@](C)(O)C[C@@H](C)C(=O)[C@H](C)[C@@H](O)[C@]1(C)O [Erythromycin, erythromycin]
- Inhibition zone ([1]; H. pylori ATCC 43504, disk (15 μg)): 29 mm
- Inhibition zone ([1]; H. pylori KA1, disk (15 μg)): 21 mm
- Inhibition zone ([1]; H. pylori KA2, disk (15 μg)): 22 mm
- Inhibition zone ([1]; H. pylori KA3, disk (15 μg)): 24 mm
- Inhibition zone ([1]; H. pylori KA4, disk (15 μg)): 23 mm
- Inhibition zone ([1]; H. pylori KA5, disk (15 μg)): 21 mm
- Inhibition zone ([1]; H. pylori KA6, disk (15 μg)): 25 mm
- Inhibition zone ([1]; H. pylori KA7, disk (15 μg)): 24 mm
- susceptibility by disc diffusion (in words) [1]: sensitive

Compound: CNC(=C[N+](=O)[O-])NCCSCc1ccc(CN(C)C)o1 [Ranitidine, ranitidine, reference compound]
- % protection (of control ulcer) ([3]; oral 100 mg/kg): 45.05%
- score (lesion score 0-5) ([3]; oral 100 mg/kg): 2.2
- no of ulcers ([3]; oral 100 mg/kg, mean, n=6): 6.9***
- ulcer index ([3]; oral 100 mg/kg, mean, n=6): 6.0* mm
